Measurements reported in US10131652B2, “Pyrimidinyloxy benzene derivatives as herbicides” (E. I. DU PONT DE NEMOURS AND COMPANY, priority 2014, dated 2018).

Assays:
Assay in all cases: Test F pre-/postemergence plant response
Assay type in all cases: in vivo
Settings in all cases: scale 0 to 100
corn (Zea mays) = system: corn (Zea mays)
Outline: (§1)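 Plant response is a visual score from 0, meaning no effect, to 100, meaning complete control, assigned by comparison with untreated plants. Ratings were made 14 to 21 days after preemergence application to seeded silt loam or postemergence application to plants at the 1- to 4-leaf stage.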

[1] = system: giant foxtail (Setaria faberii)
Outline: as §1

[2] = system: wild poinsettia (Euphorbia heterophylla)
Outline: as §1

[3] = system: Brazilian crabgrass (Digitaria horizontalis)
Outline: as §1

[4] = system: palmer pigweed (Amaranthus palmeri)
Outline: as §1

[5] = system: johnsongrass (Sorghum halepense)
Outline: as §1

[6] = system: green foxtail (Setaria viridis)
Outline: as §1

soybean (Glycine max) = system: soybean (Glycine max)
Outline: as §1

[7] = system: fall panicum (Panicum dichotomiflorum)
Outline: as §1

[8] = system: morningglory (Ipomoea coccinea)
Outline: as §1

[9] = system: field bindweed (Convolvulus arvensis)
Outline: as §1

[10] = system: goosegrass (Eleusine indica)
Outline: as §1

[11] = system: lambsquarters (Chenopodium album)
Outline: as §1

[12] = system: waterhemp (common waterhemp, Amaranthus rudis)
Outline: as §1

[13] = system: dayflower (Virginia (VA) dayflower, Commelina virginica)
Outline: as §1

[14] = system: sandbur (southern sandbur, Cenchrus echinatus)
Outline: as §1

## Cc1cc(-c2ccccc2Oc2ncc(Cl)cn2)on1 [Compound 58]
Corn (Zea mays); 8 g ai/ha Postemergence
  Plant response rating, Corn: 0
Corn (Zea mays); 8 g ai/ha Preemergence
  Plant response rating, Corn: 0
Corn (Zea mays); 16 g ai/ha Postemergence
  Plant response rating, Corn: 0
Corn (Zea mays); 16 g ai/ha Preemergence
  Plant response rating, Corn: 0
Corn (Zea mays); 31 g ai/ha Postemergence
  Plant response rating, Corn: 0
Corn (Zea mays); 31 g ai/ha Preemergence
  Plant response rating, Corn: 0
Corn (Zea mays); 62 g ai/ha Postemergence
  Plant response rating, Corn: 5
Corn (Zea mays); 62 g ai/ha Preemergence
  Plant response rating, Corn: 0
Corn (Zea mays); 125 g ai/ha Postemergence
  Plant response rating, Corn: 5
Corn (Zea mays); 125 g ai/ha Preemergence
  Plant response rating, Corn: 0
[1]; 8 g ai/ha Preemergence
  Plant response rating, Foxtail, Giant: 0
[1]; 16 g ai/ha Preemergence
  Plant response rating, Foxtail, Giant: 0
[1]; 31 g ai/ha Preemergence
  Plant response rating, Foxtail, Giant: 0
[1]; 62 g ai/ha Preemergence
  Plant response rating, Foxtail, Giant: 0
[1]; 125 g ai/ha Preemergence
  Plant response rating, Foxtail, Giant: 40
[2]; 8 g ai/ha Postemergence
  Plant response rating, Poinsettia, Wild: 30
[2]; 8 g ai/ha Preemergence
  Plant response rating, Poinsettia, Wild: 0
[2]; 16 g ai/ha Postemergence
  Plant response rating, Poinsettia, Wild: 30
[2]; 16 g ai/ha Preemergence
  Plant response rating, Poinsettia, Wild: 0
[2]; 31 g ai/ha Postemergence
  Plant response rating, Poinsettia, Wild: 60
[2]; 31 g ai/ha Preemergence
  Plant response rating, Poinsettia, Wild: 20
[2]; 62 g ai/ha Postemergence
  Plant response rating, Poinsettia, Wild: 50
[2]; 125 g ai/ha Postemergence
  Plant response rating, Poinsettia, Wild: 60
[2]; 125 g ai/ha Preemergence
  Plant response rating, Poinsettia, Wild: 20
[2]; Preemergence
  Plant response rating, Poinsettia, Wild: 20
[3]; 8 g ai/ha Postemergence
  Plant response rating, Crabgrass, Brazil: 5
[3]; 8 g ai/ha Preemergence
  Plant response rating, Crabgrass, Brazil: 0
[3]; 16 g ai/ha Postemergence
  Plant response rating, Crabgrass, Brazil: 5
[3]; 16 g ai/ha Preemergence
  Plant response rating, Crabgrass, Brazil: 0
[3]; 31 g ai/ha Postemergence
  Plant response rating, Crabgrass, Brazil: 5
[3]; 31 g ai/ha Preemergence
  Plant response rating, Crabgrass, Brazil: 0
[3]; 62 g ai/ha Postemergence
  Plant response rating, Crabgrass, Brazil: 10
[3]; 62 g ai/ha Preemergence
  Plant response rating, Crabgrass, Brazil: 35
[3]; 125 g ai/ha Postemergence
  Plant response rating, Crabgrass, Brazil: 10
[3]; 125 g ai/ha Preemergence
  Plant response rating, Crabgrass, Brazil: 75
[4]; 8 g ai/ha Postemergence
  Plant response rating, Pigweed, Palmer: 50
[4]; 8 g ai/ha Preemergence
  Plant response rating, Pigweed, Palmer: 0
[4]; 16 g ai/ha Postemergence
  Plant response rating, Pigweed, Palmer: 50
[4]; 16 g ai/ha Preemergence
  Plant response rating, Pigweed, Palmer: 0
[4]; 31 g ai/ha Postemergence
  Plant response rating, Pigweed, Palmer: 50
[4]; 31 g ai/ha Preemergence
  Plant response rating, Pigweed, Palmer: 0
[4]; 62 g ai/ha Postemergence
  Plant response rating, Pigweed, Palmer: 70
[4]; 125 g ai/ha Postemergence
  Plant response rating, Pigweed, Palmer: 60
[4]; 125 g ai/ha Preemergence
  Plant response rating, Pigweed, Palmer: 35
[4]; Preemergence
  Plant response rating, Pigweed, Palmer: 35
[5]; 8 g ai/ha Preemergence
  Plant response rating, Johnsongrass: 0
[5]; 16 g ai/ha Preemergence
  Plant response rating, Johnsongrass: 0
[5]; 31 g ai/ha Preemergence
  Plant response rating, Johnsongrass: 0
[5]; 125 g ai/ha Preemergence
  Plant response rating, Johnsongrass: 20
[5]; Preemergence
  Plant response rating, Johnsongrass: 0
[6]; 8 g ai/ha Preemergence
  Plant response rating, Foxtail, Green: 0
[6]; 16 g ai/ha Preemergence
  Plant response rating, Foxtail, Green: 0
[6]; 31 g ai/ha Preemergence
  Plant response rating, Foxtail, Green: 0
[6]; 125 g ai/ha Preemergence
  Plant response rating, Foxtail, Green: 25
[6]; Preemergence
  Plant response rating, Foxtail, Green: 0
Soybean (Glycine max); 8 g ai/ha Postemergence
  Plant response rating, Soybean: 50
Soybean (Glycine max); 8 g ai/ha Preemergence
  Plant response rating, Soybean: 0
Soybean (Glycine max); 16 g ai/ha Postemergence
  Plant response rating, Soybean: 50
Soybean (Glycine max); 16 g ai/ha Preemergence
  Plant response rating, Soybean: 10
Soybean (Glycine max); 31 g ai/ha Postemergence
  Plant response rating, Soybean: 70
Soybean (Glycine max); 31 g ai/ha Preemergence
  Plant response rating, Soybean: 20
Soybean (Glycine max); 62 g ai/ha Postemergence
  Plant response rating, Soybean: 90
Soybean (Glycine max); 125 g ai/ha Postemergence
  Plant response rating, Soybean: 95
Soybean (Glycine max); 125 g ai/ha Preemergence
  Plant response rating, Soybean: 75
Soybean (Glycine max); Preemergence
  Plant response rating, Soybean: 35
[7]; 8 g ai/ha Postemergence
  Plant response rating, Panicum, Fall: 15
[7]; 8 g ai/ha Preemergence
  Plant response rating, Panicum, Fall: 0
[7]; 16 g ai/ha Postemergence
  Plant response rating, Panicum, Fall: 0
[7]; 16 g ai/ha Preemergence
  Plant response rating, Panicum, Fall: 35
[7]; 31 g ai/ha Postemergence
  Plant response rating, Panicum, Fall: 0
[7]; 31 g ai/ha Preemergence
  Plant response rating, Panicum, Fall: 65
[7]; 62 g ai/ha Postemergence
  Plant response rating, Panicum, Fall: 10
[7]; 125 g ai/ha Postemergence
  Plant response rating, Panicum, Fall: 15
[7]; 125 g ai/ha Preemergence
  Plant response rating, Panicum, Fall: 100
[7]; Preemergence
  Plant response rating, Panicum, Fall: 90
[8]; 8 g ai/ha Preemergence
  Plant response rating, Morningglory: 0
[8]; 16 g ai/ha Preemergence
  Plant response rating, Morningglory: 0
[8]; 31 g ai/ha Preemergence
  Plant response rating, Morningglory: 10
[8]; 125 g ai/ha Preemergence
  Plant response rating, Morningglory: 10
[8]; Preemergence
  Plant response rating, Morningglory: 10
[9]; 8 g ai/ha Postemergence
  Plant response rating, Field Bindweed: 10
[9]; 8 g ai/ha Preemergence
  Plant response rating, Field Bindweed: 0
[9]; 16 g ai/ha Postemergence
  Plant response rating, Field Bindweed: 10
[9]; 16 g ai/ha Preemergence
  Plant response rating, Field Bindweed: 0
[9]; 31 g ai/ha Postemergence
  Plant response rating, Field Bindweed: 20
[9]; 31 g ai/ha Preemergence
  Plant response rating, Field Bindweed: 0
[9]; 62 g ai/ha Postemergence
  Plant response rating, Field Bindweed: 30
[9]; 62 g ai/ha Preemergence
  Plant response rating, Field Bindweed: 0
[9]; 125 g ai/ha Postemergence
  Plant response rating, Field Bindweed: 50
[9]; 125 g ai/ha Preemergence
  Plant response rating, Field Bindweed: 0
[10]; 8 g ai/ha Preemergence
  Plant response rating, Goosegrass: 0
[10]; 16 g ai/ha Preemergence
  Plant response rating, Goosegrass: 0
[10]; 31 g ai/ha Preemergence
  Plant response rating, Goosegrass: 5
[10]; 125 g ai/ha Preemergence
  Plant response rating, Goosegrass: 75
[10]; Preemergence
  Plant response rating, Goosegrass: 5
[11]; 16 g ai/ha Preemergence
  Plant response rating, Lambsquarters: 0
[11]; 31 g ai/ha Preemergence
  Plant response rating, Lambsquarters: 65
[11]; 125 g ai/ha Preemergence
  Plant response rating, Lambsquarters: 100
[11]; Preemergence
  Plant response rating, Lambsquarters: 90
[12]; 8 g ai/ha Postemergence
  Plant response rating, Waterhemp: 65
[12]; 8 g ai/ha Preemergence
  Plant response rating, Waterhemp: 20
[12]; 16 g ai/ha Postemergence
  Plant response rating, Waterhemp: 60
[12]; 16 g ai/ha Preemergence
  Plant response rating, Waterhemp: 75
[12]; 31 g ai/ha Postemergence
  Plant response rating, Waterhemp: 65
[12]; 31 g ai/ha Preemergence
  Plant response rating, Waterhemp: 75
[12]; 62 g ai/ha Postemergence
  Plant response rating, Waterhemp: 80
[12]; 125 g ai/ha Postemergence
  Plant response rating, Waterhemp: 90
[12]; 125 g ai/ha Preemergence
  Plant response rating, Waterhemp: 100
[12]; Preemergence
  Plant response rating, Waterhemp: 90
[13]; 8 g ai/ha Postemergence
  Plant response rating, Dayflower, VA: 5
[13]; 8 g ai/ha Preemergence
  Plant response rating, Dayflower, VA: 0
[13]; 16 g ai/ha Postemergence
  Plant response rating, Dayflower, VA: 5
[13]; 16 g ai/ha Preemergence
  Plant response rating, Dayflower, VA: 0
[13]; 31 g ai/ha Postemergence
  Plant response rating, Dayflower, VA: 10
[13]; 31 g ai/ha Preemergence
  Plant response rating, Dayflower, VA: 0
[13]; 62 g ai/ha Postemergence
  Plant response rating, Dayflower, VA: 20
[13]; 125 g ai/ha Postemergence
  Plant response rating, Dayflower, VA: 10
[13]; 125 g ai/ha Preemergence
  Plant response rating, Dayflower, VA: 80
[14]; 8 g ai/ha Postemergence
  Plant response rating, Sandbur: 0
[14]; 8 g ai/ha Preemergence
  Plant response rating, Sandbur: 0
[14]; 16 g ai/ha Postemergence
  Plant response rating, Sandbur: 0
[14]; 16 g ai/ha Preemergence
  Plant response rating, Sandbur: 0
[14]; 31 g ai/ha Postemergence
  Plant response rating, Sandbur: 0
[14]; 31 g ai/ha Preemergence
  Plant response rating, Sandbur: 0
[14]; 62 g ai/ha Postemergence
  Plant response rating, Sandbur: 0
[14]; 125 g ai/ha Postemergence
  Plant response rating, Sandbur: 10
[14]; 125 g ai/ha Preemergence
  Plant response rating, Sandbur: 0
[14]; Preemergence
  Plant response rating, Sandbur: 0
